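Values below derive from 48-hour exposures of cells grown in 96-well plates, with endpoints linearly interpolated between the two concentrations bracketing the appropriate inhibition level. The concentration for 50% growth inhibition is given as GI50.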 Calls of active or inactive are those of the source. Rule as the data show it: active = GI50 up to about 1.1 µM and inactive = higher.
Columns and labels:
Experiment in all cases: DTP human tumour cell line panel, 48 h
[1] = tested on: MDA-MB-231
[2] = tested on: DU-145
[3] = tested on: SR
[4] = tested on: SN12C
[5] = tested on: T47D
[6] = tested on: SNB-19
[7] = tested on: SF-268
[8] = tested on: OVCAR-4
[9] = tested on: ACHN
[10] = tested on: MCF7
[11] = tested on: SNB-75
[12] = tested on: 786-0
[13] = tested on: UO-31
[14] = tested on: KM12
[15] = tested on: TK-10
[16] = tested on: OVCAR-3
[17] = tested on: CCRF-CEM
[18] = tested on: K562
[19] = tested on: A549
[20] = tested on: SK-OV-3
[21] = tested on: COLO 205
[22] = tested on: PC-3
[23] = tested on: HCT-116
[24] = tested on: SF-295
[25] = tested on: HCT-15
[26] = tested on: SK-MEL-5
[27] = tested on: NCI-H226
[28] = tested on: HT-29
[29] = tested on: A498
[30] = tested on: CAKI-1
[31] = tested on: HOP-62
[32] = tested on: M14
[33] = tested on: BT-549
[34] = tested on: MOLT-4
[35] = tested on: RXF 393
[36] = tested on: OVCAR-5
[37] = tested on: SK-MEL-28
[38] = tested on: UACC-62
[39] = tested on: NCI-H460
[40] = tested on: Hs-578T
[41] = tested on: HOP-92
[42] = tested on: MDA-N
[43] = tested on: HL-60
[44] = tested on: SW-620
[45] = tested on: MDA-MB-435
[46] = tested on: NCI/ADR-RES
[47] = tested on: Malme-3M
[48] = tested on: U-251
[49] = tested on: OVCAR-8
[50] = tested on: SK-MEL-2
[51] = tested on: NCI-H522
[52] = tested on: NCI-H23
[53] = tested on: RPMI-8226
[54] = tested on: IGROV-1
[55] = tested on: SF-539
[56] = tested on: UACC-257
[57] = tested on: LOX IMVI
[58] = tested on: EKVX

Cc1nc(O)c(Cc2ccccc2O)c(-c2ccccc2)n1
GI50 [1]: 98.9 µM (inactive) | GI50 [2]: > 100 µM (inactive) | GI50 [3]: > 100 µM (inactive) | GI50 [4]: > 100 µM (inactive) | GI50 [5]: 78.5 µM (inactive) | GI50 [6]: > 100 µM (inactive) | GI50 [7]: > 100 µM (inactive) | GI50 [8]: > 100 µM (inactive) | GI50 [9]: > 100 µM (inactive) | GI50 [10]: > 100 µM (inactive) | GI50 [11]: 22.4 µM (inactive) | GI50 [12]: > 100 µM (inactive) | GI50 [13]: > 100 µM (inactive) | GI50 [14]: > 100 µM (inactive) | GI50 [15]: > 100 µM (inactive) | GI50 [16]: > 100 µM (inactive) | GI50 [17]: 99.3 µM (inactive) | GI50 [18]: > 100 µM (inactive) | GI50 [19]: > 100 µM (inactive) | GI50 [20]: > 100 µM (inactive) | GI50 [21]: > 100 µM (inactive) | GI50 [22]: > 100 µM (inactive) | GI50 [23]: > 100 µM (inactive) | GI50 [24]: > 100 µM (inactive) | GI50 [25]: > 100 µM | GI50 [26]: > 100 µM (inactive) | GI50 [27]: > 100 µM (inactive) | GI50 [28]: 87.5 µM (inactive) | GI50 [29]: > 100 µM (inactive) | GI50 [30]: > 100 µM (inactive) | GI50 [31]: > 100 µM (inactive) | GI50 [32]: > 100 µM (inactive) | GI50 [33]: > 100 µM (inactive) | GI50 [34]: > 100 µM (inactive) | GI50 [35]: > 100 µM (inactive) | GI50 [36]: > 100 µM (inactive) | GI50 [37]: > 100 µM (inactive) | GI50 [38]: > 100 µM (inactive) | GI50 [39]: > 100 µM (inactive) | GI50 [40]: > 100 µM (inactive) | GI50 [41]: > 100 µM (inactive) | GI50 [42]: > 100 µM (inactive) | GI50 [43]: > 100 µM (inactive) | GI50 [44]: > 100 µM (inactive) | GI50 [45]: > 100 µM (inactive) | GI50 [46]: > 100 µM (inactive) | GI50 [47]: > 100 µM (inactive) | GI50 [48]: > 100 µM (inactive) | GI50 [49]: > 100 µM (inactive) | GI50 [50]: > 100 µM (inactive) | GI50 [51]: > 100 µM (inactive) | GI50 [52]: > 100 µM (inactive) | GI50 [53]: > 100 µM (inactive) | GI50 [54]: > 100 µM (inactive) | GI50 [55]: > 100 µM (inactive) | GI50 [56]: > 100 µM (inactive) | GI50 [57]: > 100 µM (inactive) | GI50 [58]: 19.1 µM (inactive)

Cc1cc(O)cc2c1c(=O)c1ccccc1n2C
GI50 [1]: > 100 µM (inactive) | GI50 [2]: > 100 µM (inactive) | GI50 [3]: 48.5 µM (inactive) | GI50 [4]: > 100 µM (inactive) | GI50 [5]: 73.5 µM (inactive) | GI50 [6]: 34.8 µM (inactive) | GI50 [7]: 31.7 µM (inactive) | GI50 [8]: 80.2 µM (inactive) | GI50 [9]: 89.7 µM (inactive) | GI50 [10]: > 100 µM (inactive) | GI50 [11]: 87.5 µM (inactive) | GI50 [12]: 44.4 µM (inactive) | GI50 [13]: > 100 µM (inactive) | GI50 [14]: > 100 µM (inactive) | GI50 [15]: 46.9 µM (inactive) | GI50 [16]: > 100 µM (inactive) | GI50 [17]: > 100 µM (inactive) | GI50 [19]: > 100 µM (inactive) | GI50 [20]: 75.2 µM (inactive) | GI50 [21]: > 100 µM (inactive) | GI50 [22]: > 100 µM (inactive) | GI50 [23]: 54.7 µM (inactive) | GI50 [24]: 52.2 µM (inactive) | GI50 [25]: > 100 µM | GI50 [26]: 62.5 µM (inactive) | GI50 [27]: 49.1 µM (inactive) | GI50 [28]: > 100 µM (inactive) | GI50 [29]: 45.3 µM (inactive) | GI50 [30]: > 100 µM (inactive) | GI50 [32]: > 100 µM (inactive) | GI50 [33]: 50.6 µM (inactive) | GI50 [34]: 55.1 µM (inactive) | GI50 [35]: 41.5 µM (inactive) | GI50 [36]: > 100 µM (inactive) | GI50 [38]: > 100 µM (inactive) | GI50 [39]: 5.33 µM (inactive) | GI50 [40]: 37.1 µM (inactive) | GI50 [41]: 39.4 µM (inactive) | GI50 [42]: > 100 µM (inactive) | GI50 [43]: 66.8 µM (inactive) | GI50 [44]: > 100 µM (inactive) | GI50 [45]: > 100 µM (inactive) | GI50 [46]: 68.1 µM (inactive) | GI50 [48]: 54.1 µM (inactive) | GI50 [49]: 31.7 µM (inactive) | GI50 [50]: > 100 µM (inactive) | GI50 [51]: 34.8 µM (inactive) | GI50 [52]: 38.9 µM (inactive) | GI50 [53]: > 100 µM (inactive) | GI50 [54]: > 100 µM (inactive) | GI50 [55]: 32.5 µM (inactive) | GI50 [56]: > 100 µM (inactive) | GI50 [57]: > 100 µM (inactive) | GI50 [58]: > 100 µM (inactive)
